Measurements taken from patent publication US11344496B2, “Methods for preparing stabilized amorphous drug formulations using acoustic fusion” (Merck Sharp & Dohme Corp., priority 2017, dated 2022).

Tests used:
[1] = Rat oral pharmacokinetic study of torcetrapib formulations; type: in vivo; details: male, Wistar-Han, plasma, rats, 10 mg/kg
Procedure: The in vivo absorption of Torcetrapib after oral administration of the Torcetrapib-copovidone-TPGS dispersion described in Example 4 was investigated in rats at a dose level of 10 mg/kg. Materials and methods used for the rat pharmacokinetic study are provided below. Crystalline drug powders and drug-polymer dispersion formulations were also evaluated as control formulations. The drug powders and drug-polymer dispersions were dosed as suspensions in 0.5% of methylene cellulose. The Torcetrapib-polymer dispersion was used as a benchmark formulation for enhancing the drug's solubility and oral absorption.
Male Wistar-Han rats were used for oral administration studies. All animals were fasted overnight before dosing, provided water ad libitum, and fed 4 hours following drug treatment. The fasted animals were orally given torcetrapib formulations by gavage (n=3) at a torcetrapib dose of 10 mg/kg. The formulations included a suspension of crystalline torcetrapib powder in 0.5% of methyl cellulose (MC), a suspension of torcetrapib-polymer dispersion in 0.5% of acidified MC (5 mM HCl added to prevent dissolution of the polymer in the vehicle). Serial blood samples were collected at 0.25, 0.5, 1, 2, 4, 8, 12, 18, and 24 hour post-dose and placed into EDTA-containing tubes and centrifuged. […]
Torcetrapib plasma concentrations were determined by LC-MS/MS following protein precipitation with acetonitrile. […] Analyte response was measured by multiple reaction monitoring (MRM) of transitions unique to each compound.
Calibration curves were generated and verified using standard and quality control samples prepared from an initial weighing of high purity compound. […] The limit of quantification was 1 ng/mL. […]
Pharmacokinetic parameters were calculated by established non-compartmental methods. The area under the plasma concentration vs. time curve from time zero to time t(AUC0-t) was determined using the Watson software (version 7.3) with linear trapezoidal interpolation in the ascending slope and logarithmic trapezoidal interpolation in the descending slope.

[2] = BCS (Biopharmaceutics Classification System) designation by solubility and permeability; type: physicochemical; set-up: key: BCS Class 1 describes compounds with high permeability and high solubility.; BCS Class 2 describes compounds with high permeability and low solubility.; BCS Class 3 describes compounds with low permeability and high solubility.; BCS Class 4 describes compounds with low permeability and low solubility
Description: We tested a number of model drugs using the acoustic fusion methods, as described infra. The drugs tested are representative BCS Class 2 and Class 4 drugs. The BCS (Biopharmaceutics Classification System) designation is used to group compounds into classes based on their solubility and permeability (BCS guidance “Waiver of In vivo Bioavailability and Bioequivalence Studies for Immediate Release Solid Oral Dosage Forms Based on a Biopharmaceutics Classification System,” U.S. Department of Health and Human Services, Food and Drug Administration):
BCS Class 1 describes compounds with high permeability and high solubility.
BCS Class 2 describes compounds with high permeability and low solubility.
BCS Class 3 describes compounds with low permeability and high solubility.
BCS Class 4 describes compounds with low permeability and low solubility.
Under the BCS Classification System, a drug is considered highly soluble if fully solubilized in 250 mL water at the highest therapeutic dose at any physiological pH. A drug is considered highly permeable if the extent of oral absorption is greater than 90%.

| Compound | Tmax ([1]; mean n = 3) | AUC(0-t) ([1]; mean n = 3, read-out: AUC(0-24)) | Cmax ([1]; suspension in 0.5% methyl cellulose, mean n = 3) | BCS Class [2] |
| --- | --- | --- | --- | --- |
| CCOC(=O)N1c2ccc(C(F)(F)F)cc2[C@@H](N(Cc2cc(C(F)(F)F)cc(C(F)(F)F)c2)C(=O)OC)C[C@H]1CC [Torcetrapib, (2R,4S)-4-[(3,5-Bis-trifluoromethylbenzyl)methoxycarbonylamino]-2-ethyl-6-trifluoromethyl-3,4-dihydro-2H-quinoline-1-carboxylic acid ethyl ester] | 6 h | 0.707 µM·h | 84 nM | BCS Class 2 |
| Cc1cccc(C)c1OCC(=O)N[C@@H](Cc1ccccc1)[C@@H](O)C[C@H](Cc1ccccc1)NC(=O)[C@H](C(C)C)N1CCCNC1=O [Lopinavir, (αS)—N-[(1S,3S,4S)-4-[[2-(2,6-Dimethylphenoxy)acetyl]amino]-3-hydroxy-5-phenyl-1-(phenylmethyl)pentyl]tetrahydro-α-(1-methylethyl)-2-oxo-1(2H)-pyrimidineacetamide] | – | – | – | BCS class 2 |
